Experimental data from ChEMBL document CHEMBL1130793, “Peptide inhibitors of N-succinyl diaminopimelic acid aminotransferase (DAP-AT): a novel class of antimicrobial compounds” (Bioorg Med Chem Lett, 1998).

Experiments:
Escherichia coli = experiment: Regeneration time when tested against inhibition of N-Succinyl Diaminopimelic Acid Aminotransferase from Escherichia coli
[1] = Michaelis-Menten constant was determined; assay type: ADME; conditions: read-out: Km app
[2] = Pharmacokinetic parameter was determined; assay type: ADME
[3] = Ratio of the Kcat and Km app was determined; assay type: ADME
[4] = tested on: N-succinyldiaminopimelate aminotransferase (E. coli); experiment: Compound was tested for inhibition of N-Succinyl Diaminopimelic Acid Aminotransferase from Escherichia coli.; conditions: concentration not given here
[5] = Catalytic constant was determined; assay type: ADME
[6] = tested on: N-succinyldiaminopimelate aminotransferase (E. coli); experiment: Compound was tested for inhibition of N-Succinyl Diaminopimelic Acid Aminotransferase from Escherichia coli; conditions: concentration not given here
[7] = tested on: N-succinyldiaminopimelate aminotransferase (E. coli); experiment: Compound was tested for 50% inhibition of N-Succinyl Diaminopimelic Acid Aminotransferase (DAP-AT) from E. coli; overall rate of substrate consumption increases at 20 mM

T1/2 regen (Escherichia coli)	Km [1]	k cat [2]	k cat/Km [3]	inhibition [4]	SMILES	also measured
	< 1000 µM	< 2.1 s⁻¹	< 2100 M⁻¹ s⁻¹	< 0.8%	CC(=O)N[C@@H](Cc1ccccc1)C(=O)N[C@@H](CCCC(=O)C(=O)[O-])C(=O)[O-].[Li+].[Li+]	
	1570 µM	40 s⁻¹	25400 M⁻¹ s⁻¹		CC(=O)N[C@@H](CC(=O)[O-])C(=O)N[C@@H](CCCC(=O)C(=O)[O-])C(=O)[O-].[Li+].[Li+].[Li+]	inhibition [6]: 9.3%; IC50 [7]: overall rate of substrate consumption increases at 20 mM

Second part, the compound before the results:

SMILES	T1/2 regen (Escherichia coli)	Km [1]	k cat [2]	k cat/Km [3]	inhibition [4]	also measured
CC(=O)N[C@@H](Cc1ccccc1)C(=O)N[C@@H](CCCC(NN)C(=O)O)C(=O)O (stereo partly specified)	6.07 min					
CC(=O)N[C@@H](CC(=O)O)C(=O)N[C@@H](CCCC(NN)C(=O)O)C(=O)O (stereo partly specified)	48.95 min					
NNC(CCC[C@H](NC(=O)CCC(=O)O)C(=O)O)C(=O)O (stereo partly specified)	78.6 min					
O=C(O)CCC(=O)N[C@@H](CCCC(=O)C(=O)O)C(=O)O		600 µM		273000 M⁻¹ s⁻¹	100%	k cat [5]: 164 s⁻¹
